# Article PMC11528023, “Transport mechanism and structural pharmacology of human urate transporter URAT1” (Cell Research, 2024)
# Numbering of substitutions follows the chain as printed.
# Tests used:
# [1] = molecular target: human URAT1 tagged with MBP and DARPin, with part of the intracellular loop (residues 280-343) replaced by OAT4 residues 277-339 (human) (UniProt Q96S37); assay: cryo-EM particle images; purified protein at the high concentration used to prepare cryo-EM grids; particles seen on the grids (Supplementary Fig. S1b)
# URAT1 = molecular target: T1, URAT1 (Homo sapiens, UniProt Q96S37); assay: Effect of reducing anion gradients on 14C-urate uptake; format: cell-based; conditions: 125 mM sodium phosphate in place of sodium gluconate in uptake buffer, Fig. S12b
# T1 construct: expressed in transfected cells; host or cells: HEK293 cells (ATCC, CRL-3216), transient transfection with Lipofectamine 3000
# T1 sequence (Q96S37 1-553): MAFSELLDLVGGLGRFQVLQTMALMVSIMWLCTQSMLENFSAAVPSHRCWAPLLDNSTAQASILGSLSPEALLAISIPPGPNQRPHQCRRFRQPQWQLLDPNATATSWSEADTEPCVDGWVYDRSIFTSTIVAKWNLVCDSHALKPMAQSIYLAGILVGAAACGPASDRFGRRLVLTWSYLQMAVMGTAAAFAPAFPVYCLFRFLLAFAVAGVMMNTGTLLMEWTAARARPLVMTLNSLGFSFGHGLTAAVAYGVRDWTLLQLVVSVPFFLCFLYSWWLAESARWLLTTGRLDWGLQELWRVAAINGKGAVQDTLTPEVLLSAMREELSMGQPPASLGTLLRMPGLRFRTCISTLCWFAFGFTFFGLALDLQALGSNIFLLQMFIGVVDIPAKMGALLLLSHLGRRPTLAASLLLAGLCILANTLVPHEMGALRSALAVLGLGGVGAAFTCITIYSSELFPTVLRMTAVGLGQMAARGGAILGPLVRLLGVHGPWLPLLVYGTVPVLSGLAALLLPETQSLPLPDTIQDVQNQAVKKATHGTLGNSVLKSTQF
# Procedure: Human embryonic kidney (HEK) 293 cells (ATCC, CRL-3216) were seeded onto poly(D-lysine)-coated 96-well plates at a density of 0.3 × 10^5 cells per well and cultured at 37 °C until reaching approximately 70%–80% confluence. The cells were transiently transfected with plasmids encoding the URAT1 WT or mutants using Lipofectamine 3000 (Invitrogen, L3000001), following the manufacturer’s protocol. The transfected cells were cultured at 37 °C for 12 h. Following this, 10 mM sodium butyrate was added, and the cells were further incubated at 30 °C for an additional 24 h. The medium was aspirated, and the cells were rinsed once with assay buffer (20 mM HEPES pH 7.4, 125 mM sodium gluconate, 4.8 mM potassium gluconate, 1.2 mM monobasic potassium phosphate, 1.2 mM magnesium sulfate, 1.3 mM calcium gluconate, and 5.6 mM glucose) and then incubated with 400 µM urate consisted of 80 µM ^14C-radiolabeled (50–60 mCi/mmol, 0.5 mCi/mL, American Radiolabeled Chemicals, Inc.) and 320 µM non-radiolabeled in assay buffer at 37 °C for 20 min. In some experiments, 125 mM sodium gluconate was replaced by sodium chloride, sulfate, or phosphate. […] The cells were then lysed in 0.1 M NaOH, and the lysed samples were added to scintillation liquid to measure radioactivity using a PerkinElmer Microbeta2 counter. […]
# URAT1WT [2] = molecular target: T2, URAT1WT (Homo sapiens, UniProt Q96S37); assay: Anion preloading 14C-urate uptake assay, WT URAT1; format: cell-based; conditions: Fig. 4e, f, NaCl uptake buffer
# T2 construct: expressed in transfected cells; host or cells: HEK293 cells (ATCC, CRL-3216), transient transfection with Lipofectamine 3000
# T2 sequence (Q96S37 1-553): T1 sequence (Q96S37 1-553)
# URAT1 Q473E = molecular target: T3, URAT1 Q473E (Homo sapiens, UniProt Q96S37, Q473E); assay: Anion preloading 14C-urate uptake assay, URAT1 Q473E; format: cell-based; conditions: Fig. 4e, f; Site 1 mutant
# T3 construct: expressed in transfected cells; host or cells: HEK293 cells (ATCC, CRL-3216), transient transfection
# T3 sequence (Q96S37 1-553 Q473E): T1 sequence (Q96S37 1-553) with Q473E
# URAT1EM = molecular target: T4, URAT1EM (Homo sapiens, UniProt Q96S37, A280P/A304R/A323S/A335R/D313K/DEL311-312/DEL60-62/G295A/G309E/G331A/G338L/G65T/I63V/INS307H/L287I/L292P/L321M/L328V/L337V/L341F/L64S/M324V/M330S/M343V/P317I/P333E/Q332K/R291K/R301K/R325K/R342C/S329A/T288I/T289K/T314N/T339D/W294Q/W300R); assay: 14C-urate uptake in HEK293 cells expressing URAT1EM (cryo-EM construct); format: cell-based; conditions: read-out: IC50 for URAT1EM
# T4 construct: human URAT1 (residues 3–553), a (GGGGS)3 linker, and C-terminal DARPinoff7; expressed in transfected cells; host or cells: HEK293 cells (ATCC, CRL-3216), transient transfection
# T4 sequence (Q96S37 with tags, fused parts or gaps DEL60-62/I63V/L64S/G65T/A280P/L287I/T288I/T289K/R291K/L292P/W294Q/G295A/W300R/R301K/A304R/INS307H/G309E/DEL311-312/D313K/T314N/P317I/L321M/A323S/M324V/R325K/L328V/S329A/M330S/G331A/Q332K/P333E/A335R/L337V/G338L/T339D/L341F/R342C/M343V): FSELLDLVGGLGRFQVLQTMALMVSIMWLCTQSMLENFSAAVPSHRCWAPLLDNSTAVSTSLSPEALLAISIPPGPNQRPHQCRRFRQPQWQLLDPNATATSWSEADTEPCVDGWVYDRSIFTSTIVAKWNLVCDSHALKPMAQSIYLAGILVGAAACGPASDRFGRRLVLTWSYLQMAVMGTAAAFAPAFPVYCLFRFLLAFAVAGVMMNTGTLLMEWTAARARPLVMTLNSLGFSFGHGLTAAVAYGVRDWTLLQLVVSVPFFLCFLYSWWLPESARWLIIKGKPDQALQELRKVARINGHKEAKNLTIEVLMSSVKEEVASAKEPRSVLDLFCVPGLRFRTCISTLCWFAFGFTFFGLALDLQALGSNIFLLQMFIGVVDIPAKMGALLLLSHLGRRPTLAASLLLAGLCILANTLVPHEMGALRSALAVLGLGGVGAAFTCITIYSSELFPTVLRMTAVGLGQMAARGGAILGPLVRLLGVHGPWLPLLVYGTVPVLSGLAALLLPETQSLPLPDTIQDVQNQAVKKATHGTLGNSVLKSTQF
# Procedure: (§1) Data are shown as mean ± SD; n = 3 biological replicates. In a, b, uptake buffer: 20 mM HEPES pH 7.4, 125 mM sodium gluconate, 4.8 mM potassium gluconate, 1.2 mM monobasic potassium phosphate, 1.2 mM magnesium sulfate, 1.3 mM calcium gluconate, and 5.6 mM glucose. c Cryo-EM density maps of URAT1 in the apo and substrate-bound states. […] Putative lipid densities are in light cyan. d Cryo-EM density maps of URAT1 in the drug-bound states. […] Putative lipid densities are in light cyan. e Diagram of URAT1 topology. ECD, extracellular domain. f Structure of URAT1 in the apo state. g Slice view of URAT1 in the apo state, showing the central cavity and opening to the intracellular side.
# (§2) Human embryonic kidney (HEK) 293 cells (ATCC, CRL-3216) were seeded onto poly(D-lysine)-coated 96-well plates at a density of 0.3 × 10^5 cells per well and cultured at 37 °C until reaching approximately 70%–80% confluence. The cells were transiently transfected with plasmids encoding the URAT1 WT or mutants using Lipofectamine 3000 (Invitrogen, L3000001), following the manufacturer’s protocol. The transfected cells were cultured at 37 °C for 12 h. Following this, 10 mM sodium butyrate was added, and the cells were further incubated at 30 °C for an additional 24 h. […]
# URAT1WT [3] = molecular target: T2, URAT1WT; assay: 14C-urate uptake inhibition in HEK293 cells expressing WT URAT1; format: cell-based
# Procedure: as §1, §2
compound,measurement,setting,value
"human URAT1 tagged with MBP and DARPin, with part of the intracellular loop (residues 280-343) replaced by OAT4 residues 277-339 (from UniProt Q96S37 1-279; Q9NSA0 277-339; Q96S37 344-553)",stoichiometry N,[1],2
phosphate,Impact on URAT1 function (14C-urate uptake),URAT1,minimal impact
"O=C(O)c1cnccn1 [Pyrazinoate, pyrazinoate]","Potentiation in urate uptake by anion preloading (fold change), WT",URAT1WT [2],3.5 fold
same,"Potentiation in urate uptake by anion preloading (fold change), Q473E",URAT1 Q473E,1.2 fold
CC(C)(Sc1ccncc1-c1ccc(C#N)c2ccccc12)C(=O)O [verinurad],IC50,URAT1EM,63 nM
same,IC50,URAT1WT [3],53 nM
